Laboratory results: patent US20250353860A1, “PIPERIDINE CARBOXAMIDE AZAINDANE DERIVATIVE, METHOD FOR PREPARING SAME, AND USE THEREOF” (BRISE PHARMACEUTICALS CO., LTD., priority 2022, published 2025)

Columns and labels:
CGRP receptor [1] = target: T1, CGRP receptor (Homo sapiens, UniProt O60894+Q16602); assay: Affinity for human CGRP receptor ([125I]h-CGRPα competition, CHO cell membranes); format: binding; set-up: host or cells: CHO-K1; conditions: 0.03 nM [125I]h-CGRPα; Cheng Prusoff; read-out: Ki of the affinity determination to human CGRP receptor
Protocol: The cell membrane homogenate of CHO cells expressing human CGRP receptor (comprising 16 μg of protein) was incubated with 0.03 nM [^125I]h-CGRPα and gradiently diluted test samples in buffer (50 mM Hepes-NaOH (pH 7.4), 10 mM MgCl2, 4 mM KCl, 10 mM […], 1 mM EDTA, 1 μM phosphorylation amide, 0.3% BSA and 0.04% bacitracin) at 22° C. for 90 minutes. A control group without the test sample was set up to obtain the highest binding signal of the experiment, and the non-specific binding of the experiment was determined by adding 1 μM non-isotope-labeled h-CGRPα to the control group. After the incubation, a glass fiber filter (GF/B, Packard) soaked with 0.3% PEI was placed in a 96-well cell collector (Unfilter, Packard), and the sample was quickly filtered under vacuum and rinsed several times with precooled buffer comprising 50 mM Tris-HCl and 150 mM NaCl. After the filter was dried, scintillation fluid (Microscint 0, Packard) was added and the radioactive signal value was measured using a scintillation counter (Topcount, Packard). The results are expressed as the percentage of inhibition of specific binding of the radioligand. Non-isotope labeled h-CGRPα was used as a standard sample as a control. The test samples and standard samples were tested at multiple concentrations to obtain a competition curve with [^125I]h-CGRPα, thereby calculating the IC50) 20 of each sample. The inhibition constant Ki was further calculated using the Cheng Prusoff equation: Ki=IC50/(1+L/KD), wherein L represents the concentration of [^125I]h-CGRPα in the system (0.03 nM), and KD represents the dissociation constant between [^125I]h-CGRPα and the human CORP receptor in the system (0.06 nM).

[2] = Pharmacokinetics in SD rats by oral gavage; format: in vivo; conditions: for AUC / bioavailability / half-life / Cmax: male, Sprague-Dawley, rat, plasma, PO 10 mg/kg; for bioavailability: read-out: Bioavailability F; for half-life: read-out: Half-life period T½ (converted); for Cmax: read-out: Plasma concentration Cmax; for Pharmacokinetic properties compared with Atogepant: conclusion in words
Source text: SD rats were used as test animals, and the LC/MS/MS method was used to determine the drug concentration in plasma at different times after gavage and intravenous […] of the compound of the application, so as to study the pharmacokinetic characteristics of the compound of the application in rats.
Positive control compound Atogepant, Example 1A and Example 3A of the present application;
Eighteen healthy adult Sprague Dawley (SD) male rats were purchased from Joinn (Suzhou) New Drug Research Center Co., Ltd.
An appropriate amount of the compound to be tested was weighed, added with 100% polyethylene glycol 400, and vortexed to dissolve the compound. After the preparation was completed, it would be a colorless and transparent solution with a concentration of 2 mg/mL.
An appropriate amount of the compound to be tested was weighed, added 90% polyethylene glycol 400 and 10% ethanol, and vortexed to dissolve the compound. After the preparation was completed, it would be a colorless and transparent solution with a concentration of 1 mg/mL.
Eighteen healthy adult SD male rats were fasted overnight and fed 4 hours after drug administration.
(§1) About 0.2 mL of blood was collected from the jugular vein before administration and 0.083 hours, 0.25 hours, 0.5 hours, 1 hour, 2 hours, 4 hours, 6 hours, 8 hours, 10 hours and 24 hours after administration, and anticoagulated with EDTA-K2. After blood samples were collected, they were placed in labeled ice-water bath centrifuge tubes and rapidly centrifuged to separate plasma. The centrifugation conditions were: 4000 rpm, 10 minutes, 4° C. The collected plasma was stored at below −40° C. for testing. The content of the tested compounds in the plasma of SD rats after gavage and intravenous administration of different compounds was determined by LC-MS/MS.

[3] = Pharmacokinetics in Cynomolgus monkeys by oral gavage; format: in vivo; conditions: for AUC / half-life / Cmax: male, cynomolgus monkey, plasma, PO 2 mg/kg; for half-life: read-out: Half-life T½ (converted); for Cmax: read-out: Plasma concentration Cmax; for Pharmacokinetic properties compared with Atogepant: conclusion in words
Protocol: The compounds of the present application were administered by gavage to cynomolgus monkeys as test animals, and the drug concentrations in plasma at different times were determined by LC/MS/MS to study the pharmacokinetic characteristics of the compounds of the present application […].
• Positive control compound Atogepant, Example 1A and Example 3A of the present application; • Six healthy adult male Cynomolgus monkeys, Kangshun Biotechnology Co., Ltd.
An appropriate amount of the compound to be tested was weighed, added with 100% polyethylene glycol 400, and vortexed to dissolve the compound. After the preparation was completed, it would be a colorless and transparent solution with a concentration of 1 mg/mL.
Six healthy adult male cynomolgus monkeys were fasted overnight and fed 4 hours after drug administration.
as §1, with “and” for “and 0.083 hours,”, “test compound” for “tested compounds”, “Cynomolgus monkeys” for “SD rats”, “gavage” for “gavage and intravenous administration”

CGRP receptor [4] = target: T1, CGRP receptor; assay: Inhibition of CGRP signaling pathway (cAMP, HTRF) in CHO-K1 cells expressing human CGRP receptors; format: cell-based; set-up: host or cells: CHO-K1; conditions: [α-CGRP]=10 ng/ml; increase in cAMP levels; read-out: IC50 of the inhibitory effect on the CGRP signaling pathway in CHO-K1 cells expressing human CGRP receptors
Protocol: The inhibitory effect of the CGRP signaling pathway in vitro is evaluated by measuring the cAMP level. The principle is that after CGRP binds to the CGRP receptor, the CGRP signaling pathway is activated, inducing an increase in the cAMP level. […] The specific experimental method is as follows:
CHO-K1 cells expressing human CGRP receptor (CGRPR/CHO-K1, PerkinElmer, ES-420-C) were cultured in F12K+10% FBS+400 μg/mL G418+10 μg/mL Blasticidin medium, and the cells were collected in the logarithmic growth phase. According to the instructions of the kit, the cells were resuspended in Stimulation Buffer comprising 0.5 mM IBMX, and 5 μL of the cell suspension was added to each well of a 96-well microplate (Cisbio, 66PL96025) at a cell density of 15,000 cells/well. 2.5 μL of gradient diluted compound solution was added to each well. After incubation at 37° C. for 30 minutes, 2.5 μL of 40 ng/ml human α-CGRP (Bachem, H-1470,0500) diluted in Stimulation Buffer comprising 0.5 mM IBMX was added to each well to a final concentration of 10 ng/ml. After incubation at 37° C. for 30 minutes, 5 μL of Anti-cAMP-Cryptate solution and 5 μL of cAMP-d2 solution were added to each well. After incubation at room temperature for 60 minutes, the HTRF signal was read using a microplate reader (Molecular Devices). Graphpad Prism was used to calculate the IC50 value of the compound's inhibitory effect on the increase in cAMP levels based on the compound concentration and HTRF signal.

Row | Compound | Ki (CGRP receptor [1]) [nM] | AUC [2] [ng·h/mL] | bioavailability [2] [%] | half-life [2] [h] | Cmax [2] [ng/mL] | AUC [3] [ng·h/mL] | half-life [3] [h] | Cmax [3] [ng/mL] | IC50 (CGRP receptor [4]) [nM] | Pharmacokinetic properties compared with Atogepant [2] | Pharmacokinetic properties compared with Atogepant [3]
1 | C[C@@H]1[C@H](c2c(F)ccc(F)c2F)C[C@H](NC(=O)c2cnc3c(c2)C[C@@]2(C3)C(=O)Nc3ncccc32)C(=O)N1CC(F)(F)F [Atogepant, reference compound] | 0.0098 | 2440 ± 1400 | 12.5 ± 7.3 | 1.6 ± 0.3 | 560 ± 233 | 396 ± 42 | 1.5 ± 0.1 | 108 ± 18 | 1.5 |  | 
2 | C[C@@H]1[C@H](c2c(F)ccc(F)c2F)C[C@H](NC(=O)c2cc3c(o2)CC[C@]2(C3)C(=O)Nc3ncccc32)C(=O)N1CC(F)(F)F [Example 1A, (R)—N-((3S,5S,6R)-6-methyl-2-oxo-1-(2,2,2-trifluoroethyl)-5-(2,3,6-trifluorophenyl)piperidin-3-yl)-2′-oxo-1′,2′,6,7-tetrahydro-4H-spiro[benzofuran-5,3′-pyrrolo[2,3-b]pyridine]-2-carboxamide] | 0.017 | 23200 ± 7950 | 38.6 ± 13.3 | 2.93 ± 0.6 | 3850 ± 1460 | 1840 ± 1190 | 3.77 ± 0.2 | 294 ± 166 | 14.5 | good pharmacokinetic properties | good pharmacokinetic properties
3 | C[C@@H]1[C@H](c2c(F)ccc(F)c2F)C[C@H](NC(=O)c2cc3c(s2)C[C@]2(C3)C(=O)Nc3ncccc32)C(=O)N1CC(F)(F)F [Example 3A, (S)—N-((3S,5S,6R)-6-methyl-2-oxo-1-(2,2,2-trifluoroethyl)-5-(2,3,6-trifluorophenyl)piperidin-3-yl)-2′-oxo-1′,2′,4,6-tetrahydrospiro[cyclopenta[b]thiophene-5,3′-pyrrolo[2,3-b]pyridine]-2-carboxamide] | 0.019 | 42500 ± 8520 | 90.5 ± 19.1 | 1.62 ± 0.2 | 10500 ± 3730 | 3590 ± 742 | 2.96 ± 0.3 | 778 ± 144 | 2.9 | good pharmacokinetic properties | good pharmacokinetic properties
